Data reported in patent US20230139826A1 (NONO INC., priority 2020, published 2023).
Entries after “also recorded” stand apart in the source; their conditions may differ. Where two headings read alike, the source gives them in different places. Non-standard residues stand in square brackets, D forms with d. Residues, ends and D or L forms follow the SMILES beside them.

Experiments:
[1] = target: plasmin (Homo sapiens, UniProt P00747)
Protocol: (A) LC/MS spectrum of nerinetide after incubation with plasmin in PBS. 10 uL aliquots of nerinetide (18 mg/mL) and plasmin (1 mg/mL) were incubated in 500 uL tubes of phosphate-buffered saline at 37 C for 5 min and the reaction stopped by cooling to −80 C until tested. […] (B, C) In-vitro effect of rt-PA on nerinetide content in rat (B) and human (C) plasma. Nerinetide was spiked into the plasma samples at t=0 at a concentration of 65 ug/ml, whereas alteplase (rt-PA) was administered as a 60 min infusion at the indicated concentration (D, E) In-vivo effect of the simultaneous administration of nerinetide and rt-PA on Cmax (D) and AUC (E) in the rat. The nerinetide bolus and alteplase (60 min infusion) were started simultaneously through two separate intravenous lines. Symbols represent mean±SD. […] […] (SEQ ID NO:3) (Full-length NA-1, undigested), […] […] (SEQ ID NO:8), […] […] (SEQ ID NO:10).
Direct ELISA of the indicated biotinylated peptides to the PDZ2 domain of PSD-95. […] Symbols indicate the mean±SD of triplicate experiments. […] (B). […] E,F. Time course of nerinetide or D-TAT-L-2B9c content in rat plasma (E) and human plasma (F) during a challenge with tenecteplase (TNK; 37.5 ug/ml or 6.25 ug/ml, respectively). […] (repeated measures two-way ANOVA with a post hoc Sidak's multiple comparisons test, *P<0.01). Symbols are means±SD. […]

[2] = target: PDZ2 domain of PSD-95 (Homo sapiens, UniProt P78352); experiment: Direct ELISA of biotinylated peptides to PSD-95 PDZ2; type: binding
Sequence of PDZ2 domain of PSD-95 (P78352 160-246 limits assumed): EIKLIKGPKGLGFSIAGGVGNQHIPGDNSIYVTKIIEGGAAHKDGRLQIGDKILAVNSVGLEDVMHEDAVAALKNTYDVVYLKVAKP
Protocol: ELISA plates were coated with 1 ug/ml PSD95PDZ2 in 50 mM bicarbonate buffer overnight at 4 C. The plate was blocked in 2%BSA in PBST (0.05%) for 2 h at room temperature. It was then incubated with biotinylated ligand (nerinetide, D-tat-L2B9c or D-Tat-L-AA) at the indicated concentrations (FIG. 4A) and incubated overnight at 4 C. After washing with PBS-T, the plate was incubated for 30 min with (1:3000) SA-HRP, washed again, and incubated with TMB solution for 10 min. The reaction was stopped with 100 ul H2504. Absorbance was determined at 450 nm with the synergy H1 reader.

[3] = system: transient middle cerebral artery occlusion (tMCAO); experiment: Rat transient middle cerebral artery occlusion model; conditions: rat tMCAO, comparison of the two peptides
Protocol: Nerinetide and lodoxamide was administered to rats intravenously as a bolus injection, 60 minutes after tMCAo. […] Bars in A and represent mean±SD, with all individual data points plotted. Asterisks in A indicate P<0.01 when compared to the vehicle group (one-way ANOVA post hoc Tukey's correction for multiple comparisons test) N=12-14 animals/group. […] Significant differences are indicated with an asterisk when compared to the vehicle group (Kruskal-Wallis analysis of variance on ranks with a post-hoc Dunn's correction for multiple comparisons test, *P<0.01). Vehicle: PBS alone. Scrambled: ADA peptide incapable of binding PSD-95.
All animals subjected to surgery had their physiological parameters measured prior to MCA occlusion. PE-50 polyethylene tubing was inserted into the right femoral artery for invasive monitoring of mean arterial blood pressure and for obtaining blood samples to measure blood gases (pH, PaO2, and PaCO2), electrolytes (Na^+, K^+, iCa) and plasma glucose at baseline [Blood gas cartridge CG8+, VetScan i-STAT 1 Analyzer].
Infarct volumes and hemispheric swelling were evaluated at 24 hours post-stroke from standard brain slices stained with 2% 2,3,5-triphenyltetrazolium chloride (Sigma Aldrich, St. Louis, Md., USA)(7). Neurologic scoring was conducted at 24 hours after stroke onset using forelimb-placing tests comprising of frontal visual placing, sideways visual placing, frontal tactile placing, sideways tactile placing, and vertical tactile placing (scores range from 0-2 in each component for a maximum of 12 indicating maximum impairment.

[4] = system: embolic middle cerebral artery occlusion (eMCAO); experiment: Rat embolic middle cerebral artery occlusion model with alteplase reperfusion; type: in vivo, Sprague-Dawley rats
Protocol: To test this, male Sprague-Dawley rats (10-12 weeks old; 270-310 g; Charles River, Montreal, QC, Canada) were subjected to embolic middle cerebral artery occlusion (eMCAO), produced by the introduction of an autologous blood thrombus into the middle cerebral artery. Reperfusion was achieved by treatment with intravenous alteplase at a total dose of 5.4 mg/kg beginning at 90 minutes after ischemia onset. Alteplase was administered using the human injection protocol in which 10% of the total dose is given as a bolus, with the remainder 90% of the dose being given over a 60-minute infusion. […] This dose was chosen because in pilot studies, higher doses of alteplase (10× human dose) produced unacceptable mortality rates due to hemorrhagic conversions of strokes. Nerinetide was administered either 30 minutes prior to, or concurrently with, the start of the alteplase administration (FIG. 5A) at a dose of 7.6 mg/kg. […] Infarct volumes, hemispheric swelling and neurological scores were evaluated at 24 hours.
Male Sprague-Dawley rats were subjected to eMCAO as already described. Nerinetide (7.6 mg/kg) or D-Tat-L-2B9c (7.6 mg/kg) were given as bolus injections at 60 minutes. Alteplase (5.4 mg/kg over 60 min) was also started at 60 min after eMCAO, concurrently with the active agent that inhibits PSD-95. Neurological scoring, infarct volume, and hemispheric swelling were assessed at 24 hours (FIG. 8A).
The studies were designed to have 80% power to detect a 40% absolute difference between control and treatment groups at p=0.05. Animal randomization, drug allocation and treatment drug preparation were performed by a research associate not directly involved with surgical or outcome assessment. Nerinetide and D-Tat-L-2B9c were freshly prepared at a concentration of 7.6 mg/mL in 500 uL aliquots. Alteplase was prepared from lyophilized drug and, like matching placebo, stored in identical glass tubes. Drugs were kept at 4° C. until 10 minutes prior to use. The surgeon and the investigators responsible for the surgery, stroke volume measurement, behavioural assessment and statistical analysis were blinded to treatment allocation.

[5] = In-vivo pharmacokinetic analysis in rats; conditions: rat, intravenous bolus 7.6 mg/kg
Protocol: Since the effect of nerinetide in the ESCAPE-NA1 trial was negated by alteplase, we next evaluated the effects of alteplase on pharmacokinetics (PK) of nerinetide in rats. Alteplase was administered at 0.9 mg/kg (human dose) and at 5.4 mg/kg (6 times the human dose) in an infusion that simulated the clinical protocol (10% bolus followed by a 60 min infusion of the remainder). Nerinetide was administered as an intravenous bolus at the start of the alteplase infusion at 7.6 mg/kg.
The goal of these study was to evaluate nerinetide PK parameter changes when in the presence of circulating rt-PA and plasmin. Male naïve rats received an intravenous administration of either nerinetide alone, nerinetide plus rt-PA (0.9 mg/kg) or nerinetide plus rt-PA (5.4 mg/kg). Sample collection was performed pre-dose and 0 min, 5 min, 10 min, 20 min, 50 min post-dose. At each time point, approximately 300 uL of blood was sampled from each animal using a fresh syringe. Blood samples were collected in previously prepared Eppendorf tubes [30 ul of EDTA 2.5%] and centrifuged for 20 minutes to separate plasma and cell components.
Plasma samples were stored at −80° C. until analyzed.
Changes in peptide concentration were analyzed using a two-way repeated measures ANOVA, followed by the Sidak correction for multiple comparisons. The pharmacokinetic (PK) parameters of peak plasma concentration (Cmax) and the area under the plasma concentration-time curve from 0 to last measured concentration (AUC) were obtained with PKsolver Software (USA) using a non-compartmental analysis and employing a linear interpolation. For stroke studies, differences between groups were tested using a One-way ANOVA with a Tukey's correction for multiple comparisons. […] Values for animals experiencing premature death due to any reason including subarachnoid hemorrhage or hemorrhagic transformation were imputed to reflect the worst neurological score and the maximum stroke volume achieved across all animals.

[6] = system: plasmin (1 mg/mL); experiment: plasmin in PBS (phosphate-buffered saline); conditions: 37 C, up to 5 min
[7] = human plasma in the absence of alteplase; conditions: 37° C., up to 45 min
[8] = system: rt-PA (alteplase) (135 ug/ml); experiment: PBS during a challenge with rt-PA (135 ug/ml); conditions: 37° C.
[9] = rat plasma in the absence of alteplase; conditions: Rat Sprague Dawley, 37° C., up to 45 min
[10] = cited from earlier work
[11] = system: rt-PA (alteplase) 135 ug/ml; experiment: rat plasma during a challenge with rt-PA (135 ug/ml); conditions: Rat Sprague Dawley, 37° C., up to 45 min
[12] = system: tenecteplase (TNK) 37.5 ug/ml; experiment: rat plasma during a challenge with tenecteplase (TNK; 37.5 ug/ml); conditions: Rat Sprague Dawley
[13] = system: tenecteplase (TNK) 6.25 ug/ml; experiment: human plasma during a challenge with tenecteplase (TNK; 6.25 ug/ml)
[14] = system: rt-PA (alteplase) 135 ug/ml; experiment: human plasma during a challenge with rt-PA (135 ug/ml); conditions: 37° C., up to 45 min
[15] = system: plasmin (10 ug/mL); experiment: PBS during a challenge with plasmin (10 ug/mL); conditions: 37° C.

In the case of CC[C@H](C)[C@H](NC(=O)[C@H](CO)NC(=O)[C@H](CO)NC(=O)[C@H](CC(C)C)NC(=O)[C@H](CCCCN)NC(=O)[C@@H](CCCNC(=N)N)NC(=O)[C@@H](CCCNC(=N)N)NC(=O)[C@@H](CCCNC(=N)N)NC(=O)[C@@H](CCC(N)=O)NC(=O)[C@@H](CCCNC(=N)N)NC(=O)[C@@H](CCCNC(=N)N)NC(=O)[C@@H](CCCCN)NC(=O)[C@@H](CCCCN)NC(=O)[C@@H](CCCNC(=N)N)NC(=O)CNC(=O)[C@H](N)Cc1ccc(O)cc1)C(=O)N[C@@H](CCC(=O)O)C(=O)N[C@@H](CO)C(=O)N[C@@H](CC(=O)O)C(=O)N[C@H](C(=O)O)C(C)C [D-Tat-L-2B9c, ygrkkrrqrrrKLSSIESDV SEQ ID NO:89] (H-[dY]G[dR][dK][dK][dR][dR][dQ][dR][dR][dR]KLSSIESDV-OH; C-terminus assumed), the “stability alone in phosphate buffered saline” value [1] is reported as “stable”, the EC50 [2] is reported as 151 nM and the “binding to PDZ2 domain of PSD95 in ELISA” value [2] is reported as “substantially similar binding as nerinetide”. For the same molecule, the “reducing infarction volume, hemispheric swelling and improving neurological scores” value [3] was “equally effective”, the “infarct volumes, hemispheric swelling and neurological scores” value ([4]; 7.6 mg/kg at 60 minutes after eMCAO, 24 hours) was “beneficial effect of D-Tat-L-2B9c was evident” and the “effect on infarction volume in the absence of alteplase” value ([4]; 7.6 mg/kg bolus at 60 minutes after eMCAO) was “as effective as nerinetide alone”. The “effect on infarction volume when given concurrently with alteplase” value ([4]; peptide 7.6 mg/kg and alteplase 5.4 mg/kg both at 60 min after eMCAO) was “this effect persisted” and the “pharmacokinetic profile compared with nerinetide” value [5] was “higher cmax and AUC”.

With YGRKKRRQRRRKLSSIESDV the cleaved bond [6] was “K5-R, 5 min; also recorded: R6-R, 5 min; also recorded: R7-Q, 5 min; also recorded: R9-R, 5 min; also recorded: R11-K, 5 min; also recorded: K12-L, 5 min”, the fragment found [6] was “RKLSSIESDV (SEQ ID NO:8), 5 min” and the not cleaved [7] was “stable”. The not cleaved [8] was “not affected by co-incubation with alteplase” and the not cleaved [9] was “stable”.

For “alteplase: a recombinant form of tPA; thrombolytic agent [reference compound]”, the “half-life in human plasma” value ([10]; in vivo) is given as “about five”, the “reduction of infarction volume” value ([4]; alteplase alone 5.4 mg/kg given at 60 min after eMCAO) is given as 26% and the “reduction of infarction volume” value ([4]; alteplase alone 5.4 mg/kg given at 90 minutes after eMCAO) is given as 18%.

In the case of ygrkkrrqrrrKLSSIESDV, the not cleaved [11] is reported as “no rapid degradation on addition of alteplase”, the not cleaved [7] is reported as “stable” and the not cleaved [8] is reported as “not affected by co-incubation with alteplase”. For the same molecule, the not cleaved [12] was “no rapid elimination on addition of TNK”, the not cleaved [13] was “no rapid elimination on addition of TNK” and the not cleaved [14] was “no rapid degradation on addition of alteplase”. The not cleaved [9] was “stable” and the not cleaved [15] was “no significant degradation”.

B1: Plasmin: serine protease generated from circulating plasminogen by tissue-plasminogen activators (protein, UniProt P00747 20-580; P00747 581-810, looked up)
Plasmin heavy chain A: EPLDDYVNTQGASLFSVTKKQLGAGSIEECAAKCEEDEEFTCRAFQYHSKEQQCVIMAENRKSSIIIRMRDVVLFEKKVYLSECKTGNGKNYRGTMSKTKNGITCQKWSSTSPHRPRFSPATHPSEGLEENYCRNPDNDPQGPWCYTTDPEKRYDYCDILECEEECMHCSGENYDGKISKTMSGLECQAWDSQSPHAHGYIPSKFPNKNLKKNYCRNPDRELRPWCFTTDPNKRWELCDIPRCTTPPPSSGPTYQCLKGTGENYRGNVAVTVSGHTCQHWSAQTPHTHNRTPENFPCKNLDENYCRNPDGKRAPWCHTTNSQVRWEYCKIPSCDSSPVSTEQLAPTAPPELTPVVQDCYHGDGQSYRGTSSTTTTGKKCQSWSSMTPHRHQKTPENYPNAGLTMNYCRNPDADKGPWCFTTDPSVRWEYCNLKKCSGTEASVVAPPPVVLLPDVETPSEEDCMFGNGKGYRGKRATTVTGTPCQDWAAQEPHRHSIFTPETNPRAGLEKNYCRNPDGDVGGPWCYTTNPRKLYDYCDVPQCAAPSFDCGKPQVEPKKCPGR
Plasmin light chain B: VVGGCVAHPHSWPWQVSLRTRFGMHFCGGTLISPEWVLTAAHCLEKSPRPSSYKVILGAHQEVNLEPHVQEIEVSRLFLEPTRKDIALLKLSSPAVITDKVIPACLPSPNYVVADRTECFITGWGETQGTFGAGLLKEAQLPVIENKVCNRYEFLNGRVQSTELCAGHLAGGTDSCQGDSGGPLVCFEKDKYILQGVTSWGLGCARPNKPGVYVRVSRFVTWIEGVMRNN
modifications: plasmin
In the case of B1, the “half-life in human plasma” value ([10]; reported) is given as 4 to 8 h.
